Measured values taken from ChEMBL document CHEMBL1140967, “Regiospecific microwave-assisted synthesis and cytotoxic activity against human breast cancer cells of (RS)-6-substituted-7- or 9-(2,3-dihydro-5H-1,4-benzodioxepin-3-yl)-7H- or -9H-purines” (Eur J Med Chem, 2008).
pIC50: −log10 of the molar value.

Tests used:
MCF7 [1] = test: Antiproliferative activity against human MCF7 cells after 6 days by SRB assay; settings: MCF7, 144 h
MCF7 [2] = test: Cell cycle arrest in human MCF7 cells assessed as accumulation at G0/G1 phase at cytotoxic IC50 after 48 hrs by FACS assay; type: functional
MCF7 [3] = test: Cell cycle arrest in human MCF7 cells assessed as accumulation at S phase at cytotoxic IC50 after 48 hrs by FACS assay; type: functional
MCF7 [4] = test: Cell cycle arrest in human MCF7 cells assessed as accumulation at G2/M phase at cytotoxic IC50 after 48 hrs by FACS assay; type: functional
MCF7 [5] = test: Induction of apoptosis in human MCF7 cells at cytotoxic IC50 after 48 hrs by Annexin-V based assay; type: functional

| SMILES | pIC50 (MCF7 [1]) | also measured |
| --- | --- | --- |
| Clc1ccc(Sc2ncnc3[nH]cnc23)c(Cl)c1 | 4.67 | – |
| C=CCOc1ncnc2c1ncn2C1COc2ccccc2CO1 (racemic) | 5.30 | Activity (MCF7 [2]): 55.63%; Activity (MCF7 [3]): 37%; Activity (MCF7 [4]): 7.37%; Activity (MCF7 [5]): 44.47% |
| Fc1ccc(Sc2ncnc3ncn(C4COc5ccccc5CO4)c23)cc1 (racemic) | 4.85 | – |
| C=CCOc1ncnc2ncn(C3COc4ccccc4CO3)c12 (racemic) | 4.68 | – |
| c1ccc2c(c1)COC(n1cnc3c(OCC4CCCCC4)ncnc31)CO2 (racemic) | 4.94 | – |
| c1ccc(Sc2ncnc3ncn(C4COc5ccccc5CO4)c23)cc1 (racemic) | 4.81 | – |
| c1ccc(Oc2ncnc3c2ncn3C2COc3ccccc3CO2)cc1 (racemic) | 4.61 | – |
| c1ccc(Oc2ncnc3[nH]cnc23)cc1 | 4.55 | – |
| c1ccc2c(c1)COC(n1cnc3ncnc(OCC4CCCCC4)c31)CO2 (racemic) | 4.87 | – |
| c1ccc(Sc2ncnc3c2ncn3C2COc3ccccc3CO2)cc1 (racemic) | 5.15 | Activity (MCF7 [2]): 59.1%; Activity (MCF7 [3]): 26.82%; Activity (MCF7 [4]): 11.08%; Activity (MCF7 [5]): 73.37% |
| C=CCOc1ncnc2[nH]cnc12 | 4.35 | – |
| c1nc(OCC2CCCCC2)c2nc[nH]c2n1 | 4.49 | – |
| O=c1ccn(C2COc3ccccc3CO2)c(=O)[nH]1 (configuration not stated) | 5.30 | – |
| c1ccc(Sc2ncnc3[nH]cnc23)cc1 | 4.51 | – |
| Clc1ccc(Sc2ncnc3ncn(C4COc5ccccc5CO4)c23)c(Cl)c1 (racemic) | 5.08 | Activity (MCF7 [2]): 58.1%; Activity (MCF7 [3]): 22.73%; Activity (MCF7 [4]): 19.16%; Activity (MCF7 [5]): 65.28% |
| CSc1ncnc2ncn(C3COc4ccccc4CO3)c12 (racemic) | 4.50 | – |
| c1ccc(Oc2ncnc3ncn(C4COc5ccccc5CO4)c23)cc1 (racemic) | 4.68 | – |
| CSc1ncnc2c1ncn2C1COc2ccccc2CO1 (racemic) | 4.62 | – |
| O=c1[nH]cc(F)c(=O)[nH]1 [FLUOROURACIL] | 5.36 | – |
| Fc1ccc(Sc2ncnc3[nH]cnc23)cc1 | 4.50 | – |
| Clc1ccc(Sc2ncnc3c2ncn3C2COc3ccccc3CO2)c(Cl)c1 (racemic) | 4.92 | – |
| Fc1ccc(Sc2ncnc3c2ncn3C2COc3ccccc3CO2)cc1 (racemic) | 4.95 | – |
| Nc1nc(OCC2CCCCC2)c2nc[nH]c2n1 | 4.62 | – |
| CSc1ncnc2[nH]cnc12 | 4.63 | – |
| CC(=O)O[C@H]1C(=O)[C@@]2(C)[C@H]([C@H](OC(=O)c3ccccc3)[C@]3(O)C[C@H](OC(=O)[C@H](O)[C@@H](NC(=O)c4ccccc4)c4ccccc4)C(C)=C1C3(C)C)[C@]1(OC(C)=O)CO[C@@H]1C[C@@H]2O [PACLITAXEL] | – | Activity (MCF7 [5]): 43% |
